In brackets after ≈: the same amount, converted by molar mass.
Experiments:
(HEPG2) = conditions: human, 24 h, 30 μM
physchem [1] = conditions: pH 7.4, log D n-Octanol-Dulbecco's PBS pH 7.4
Procedure: The measurement of partition coefficient was evaluated based on a miniaturized shake-flask procedure. Buffer (Dulbecco's PBS, pH 7.40) was used as the aqueous phase. The tested compound was dissolved in DMSO, at the concentration of 100 μM. The final DMSO concentration (1%.) during the octanol-buffer partitioning are very low to avoid bias on the partitioning. The amount of compound in the buffer phase was determined by HPLC with photodiode array detection after an equilibration phase of 60 min. The amount of compound in the octanol phase is calculated by subtraction of the amount of compound in buffer from the total amount of compound, which is determined from a calibration sample.
Log D is calculated as the Log10 of the amount of compound in the octanol phase divided by the amount of compound in the buffer phase. The effective range of the log D microassay is approximately −0.5 to +4.5.

[2] = tested on: NRK-52E, normal rat kidney cells; conditions: 24 h
[3] = tested on: FDC-P1, normal mouse myelogeous stem cells; conditions: 24 h
[4] = tested on: AML-12, normal mouse liver cells; conditions: 24 h
[5] = s9, 60 min, 1 μM
Procedure: The metabolic stability was determined used human liver S9 homogenate that including both microsomal and cytosolic enzyme activities. The test compound was diluted in methanol (0.625%) and acetonitrile (0.625%) at the concentration 1 μM and incubated in the human liver pool (protein=1 mg/mL) during 60 min at 37° C. Peak areas corresponding to all analytes (metabolic products) were determined by HPLC-MS/MS. Areas were recorded and ratios of peak areas of analytes to that of internal standard for each analyte were determined. The ratio of precursor compound remaining after 60 minutes and the amount remaining at time zero, expressed as percent, are reported as metabolic stability. Higher values mean higher metabolic stability.

physchem [6] = conditions: pH 7.4, aqueous buffer, Solubility Dulbecco's PBS pH 7.4
in vitro = conditions: human, Caco-2
Source text: The intestinal epithelium permeability is a critical characteristic that determines the rate and extent of human absorption and ultimately the bioavailability of a drug candidate. Caco-2 permeability assay allows a rapid assessment of membrane permeability and thus helps to rank-order compounds in terms of their absorption potential.
The Caco-2 cell line is a human colon adenocarcinoma cell line that differentiates in culture and resembles the epithelial lining of the human small intestine.
The apparent permeability coefficients (Papp) was determined in the apical-to-basolateral (A-to-B) direction across the cell monolayers (TC-7 sub-clone of the Caco-2) cultured on polycarbonate membrane filters. Compounds were tested at 50 μM with at a final DMSO concentration of 1%. Samples were analyzed by HPLC-MS or HPLC-MS/MS.
The test compound was added to the apical side and the Papp was determined based on the rate of appearance of the test compound in the basolateral side after 2 h-incubation. Two reference compounds, propranolol (highly permeable) and ranitidine (poorly permeable), are tested in each assay as controls.

[7] = tested on: H9c2 (2-1), normal rat cardiac muscle cells; conditions: 24 h
MEL-28 = experiment: cells; type: cell-based; conditions: Homo sapiens, SK-MEL-28, 48 h
How it was run: (§1)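 Absorbance at 490 nm of sulphorhodamine B bound by TCA-fixed cells gives the growth readout after 48 h continuous exposure to test samples (10 to 10^−8 μg/ml). Cells were seeded at 5×10^3 per well in RPMI 1640/10% FBS and allowed 18 h to attach first.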

MCF = experiment: cells; type: cell-based; conditions: Homo sapiens
How it was run: as §1

DU145 = experiment: cells; type: cell-based; conditions: Homo sapiens, DU-145, 48 h
How it was run: as §1

A498 = experiment: cells; type: cell-based; conditions: Homo sapiens
How it was run: as §1

SW-620 = experiment: cells; type: cell-based; conditions: Homo sapiens
How it was run: as §1

HT29 = experiment: cells; type: cell-based; conditions: Homo sapiens, HT-29, 48 h
How it was run: as §1

MB231 = experiment: cells; type: cell-based; conditions: Homo sapiens
How it was run: as §1

A549 = experiment: cells; type: cell-based; conditions: Homo sapiens, A549, 48 h
How it was run: as §1

CYP3A4 = CYP3A4 (Homo sapiens, UniProt P08684); experiment: in vitro; conditions: CYP3A4 (% inhibition)
CYP2D6 = CYP2D6 (Homo sapiens, UniProt P10635); experiment: in vitro; conditions: CYP2D6 (% inhibition)
[8] = tested on: L8, normal rat skeletal muscle cells; conditions: 24 h

Sequence of CYP3A4 (P08684 whole entry): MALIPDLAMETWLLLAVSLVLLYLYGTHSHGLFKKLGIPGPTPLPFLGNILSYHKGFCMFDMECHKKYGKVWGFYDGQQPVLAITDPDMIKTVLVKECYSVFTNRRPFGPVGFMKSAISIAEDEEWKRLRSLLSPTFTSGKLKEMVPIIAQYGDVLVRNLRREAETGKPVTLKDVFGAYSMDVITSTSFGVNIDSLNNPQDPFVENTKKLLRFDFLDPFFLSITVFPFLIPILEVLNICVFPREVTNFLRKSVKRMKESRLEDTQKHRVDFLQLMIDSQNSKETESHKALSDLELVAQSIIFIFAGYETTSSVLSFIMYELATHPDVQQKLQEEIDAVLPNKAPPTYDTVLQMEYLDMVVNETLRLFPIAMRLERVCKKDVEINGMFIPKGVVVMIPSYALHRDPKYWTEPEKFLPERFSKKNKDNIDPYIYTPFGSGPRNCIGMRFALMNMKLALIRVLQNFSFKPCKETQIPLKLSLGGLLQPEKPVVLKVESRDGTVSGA
Sequence of CYP2D6 (P10635 whole entry): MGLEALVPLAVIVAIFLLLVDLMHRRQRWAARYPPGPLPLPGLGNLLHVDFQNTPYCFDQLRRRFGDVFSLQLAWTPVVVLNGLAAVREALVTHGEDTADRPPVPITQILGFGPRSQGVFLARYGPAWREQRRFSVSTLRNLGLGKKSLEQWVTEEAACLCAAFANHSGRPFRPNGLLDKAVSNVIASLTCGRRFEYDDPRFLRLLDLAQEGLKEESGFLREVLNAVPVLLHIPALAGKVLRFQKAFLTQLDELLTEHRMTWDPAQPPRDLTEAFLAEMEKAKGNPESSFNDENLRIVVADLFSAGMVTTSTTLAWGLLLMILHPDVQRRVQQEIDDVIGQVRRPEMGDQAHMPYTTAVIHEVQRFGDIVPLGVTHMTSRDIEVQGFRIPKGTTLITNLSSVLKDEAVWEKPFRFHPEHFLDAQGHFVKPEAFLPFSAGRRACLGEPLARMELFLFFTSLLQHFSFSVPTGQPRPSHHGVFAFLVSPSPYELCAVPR

Which “Cell Viability (% inhibition)” value ((HEPG2)) does the source give for `COc1ccc2c3c([nH]c2c1)[C@@]1(CS[C@@H]2c4c(OC(C)=O)c(C)c5c(c4[C@H](COCC1=O)N1C2[C@H]2c4c(cc(C)c(OC)c4O)C[C@@H]([C@@H]1O)N2C)OCO5)NCC3` (stereo partly drawn) [Compound 34] here?
The value was 45 % inhibition.

What about the logD at 60 min (physchem [1]) of the same compound?
Its logD at 60 min is over 5.

What about the Kidney [2] of the same compound?
The Kidney was 2.74E−07.

What about the Myelo [3] of the same compound?
Its Myelo is 1.15E−05.

And the Liver [4]?
The Liver was 2.55E−06.

What about the “Human Liver S9 Metabolic Stability (% remaining)” value [5] of the same compound?
The value was 24 % remaining.

What about the solubility (physchem [6]) of the same compound?
Its solubility is 17.6 µM (≈ 14.1 µg/mL).

And the Papp A→B at 2 h, 50 μM (in vitro)?
The Papp A→B at 2 h, 50 μM was 5 ×10⁻⁶ cm/s.

What about the Heart [7] of the same compound?
Its Heart is 4.96E−07.

And the GI50 (MEL-28; MEL-28, 48 hours exposure, SRB)?
The GI50 was 3.82 nM.

What about the IC (TGI) (MEL-28; MEL-28, 48 hours exposure, SRB) of the same compound?
The IC (TGI) was 0.0127 µM.

What about the CC50 (MEL-28; read-out: LC50, MEL-28, 48 hours exposure, SRB) of the same compound?
The CC50 was 63.7 nM.

And the CC50 (MCF; 48 h, read-out: LC50)?
The CC50 was 127 nM.

What about the GI50 (MCF; MCF, 48 hours exposure, SRB) of the same compound?
The GI50 was 5.1 nM.

What about the IC (TGI) (MCF; MCF, 48 hours exposure, SRB, read-out: TGI) of the same compound?
The IC (TGI) was 0.0255 µM.

And the GI50 (DU145; DU145, 48 hours exposure, SRB)?
The GI50 was 2.55 nM.

And the IC (TGI) (DU145; DU145, 48 hours exposure, SRB)?
The IC (TGI) was 3.82 nM.

And the CC50 (DU145; read-out: LC50, DU145, 48 hours exposure, SRB)?
Its CC50 is 10.2 nM.

And the CC50 (A498; A498, 48 h, read-out: LC50)?
The CC50 was 63.7 nM.

What about the GI50 (A498; A498, 48 hours exposure, SRB) of the same compound?
Its GI50 is 3.82 nM.

What about the IC (TGI) (A498; A498, 48 hours exposure, SRB) of the same compound?
Its IC (TGI) is 0.0127 µM.

And the GI50 (SW-620; SW-620, 48 h)?
Its GI50 is 10.2 nM.

And the CC50 (SW-620; SW-620, 48 h, read-out: LC50)?
Its CC50 is 102 nM.

What about the IC (TGI) (SW-620; SW-620, 48 hours exposure, SRB) of the same compound?
The IC (TGI) was 0.0382 µM.

And the GI50 (HT29; HT29, 48 hours exposure, SRB)?
The GI50 was 7.64 nM.

And the IC (TGI) (HT29; HT29, 48 hours exposure, SRB)?
The IC (TGI) was 2.54 nM.

And the CC50 (HT29; read-out: LC50, HT29, 48 hours exposure, SRB)?
Its CC50 is 11.5 nM.

What about the CC50 (MB231; 48 h, read-out: LC50) of the same compound?
The CC50 was 127 nM.

And the IC (TGI) (MB231; 48 h, read-out: TGI)?
The IC (TGI) was 0.0102 µM.

And the GI50 (MB231; MB231, 48 hours exposure, SRB)?
The GI50 was 3.82 nM.

And the GI50 (A549; A549, 48 hours exposure, SRB, read-out: GI50)?
Its GI50 is 5.1 nM.

What about the IC (TGI) (A549; A549, 48 hours exposure, SRB, read-out: TGI) of the same compound?
Its IC (TGI) is 0.0255 µM.

What about the CC50 (A549; read-out: LC50, A549, 48 hours exposure, SRB) of the same compound?
Its CC50 is 89.2 nM.

What about the inhibition at 30 min, 10 µM (CYP3A4) of the same compound?
Its inhibition at 30 min, 10 µM is 80%.

What about the inhibition at 450 min, 10 µM (CYP2D6) of the same compound?
Its inhibition at 450 min, 10 µM is 28%.

What about the Skeletal [8] of the same compound?
Its Skeletal is 1.48E−08.
